Columns and labels:
Assay type in all cases: cell-based
OPRK1 [1] = assay: Level of expression of OPRK1 by immunoblotting in HCT116 colon cancer cells; conditions: 1 nM to 10 μM, 48 h, immunoblotting (FIG. 1)
Method: (§1) In order to determine the effect of 6-β-naltrexol or naltrexone on the level of expression of OPRK1, A549 lung cancer or HCT116 colon cancer cells were seeded onto 6-well plates at a density of 2×10^5 cell/well, and allowed to adhere overnight. Cells were then cultured in the presence of naltrexone or 6-β-naltrexol at concentrations of 1 nM, 10 nM, 100 nM, 1 μM or 10 μM for a further 48 h. Cells were then harvested and processed for measurements of OPRK1, opioid receptor-μ1 (OPRM1) and GAPDH using standard immunoblotting techniques. The effect of 6-β-naltrexol or naltrexone on the level of expression of BAD was investigated by using the same protocol as outlined above. The effect was determined in HCT116 cells using either 10 nM or 10 μM of 6-β-naltrexol or 10 nM or 10 μM naltrexone (FIG. 2).

BAD = assay: Level of expression of BAD by immunoblotting in HCT116 cells; conditions: 48 h (FIG. 2)
Method: as §1

OPRK1 [2] = assay: Level of expression of OPRK1 by immunoblotting in A549 lung cancer cells; conditions: 1 nM to 10 μM, 48 h, immunoblotting (FIG. 1)
Method: as §1

A549 and HCT116 cells = assay: Two-phase priming with 6-β-naltrexol then chemotherapy agent; cell number and viability by trypan blue cell counting
Method: The impact of combining 6-β-naltrexol with other chemotherapeutic agents was tested by culturing cells according to a treatment schedule that involved two phases of treatment. The first phase involved priming with 10 nM 6-β-naltrexol or 10 μM 6-β-naltrexol for 48 h, before treatment with another drug for a further 48 h. A549 and HCT116 cells were seeded into 6-well plates at a density of 2×10^5 cells/well and left to adhere overnight. Media was removed after 48 h, and cells were rinsed gently with drug-free medium. Fresh culture medium that contained cyclophosphamide (CPM), gemcitabine (GEM) or oxaliplatin (OXP) was then added to the cells. The concentrations of the chemotherapy agents used were approximately ¼ IC50, as established previously (Liu W M, Fowler D W, Smith P, Dalgleish A G. Pre-treatment with chemotherapy can enhance the antigenicity and immunogenicity of tumours by promoting adaptive immune responses. Br J Cancer. 2010 Jan. 5; 102(1):115-23). Cells were then left for a further 48 h before assessment of cell number of viability by cell counting using trypan blue dye as a way of discriminating live and dead cells. Cytostasis was indicated by a reduction in cell number and no associated reduction in cell viability.

SMILES | level of expression of OPRK1 (OPRK1 [1]) | effect on the level of expression of BAD (BAD; 10 nM) | increase of the level of expression of BAD (BAD; 10 μM) | level of expression of OPRK1 (OPRK1 [2]) | independent cytotoxicity of the priming agent (A549 and HCT116 cells; higher dose of 6-β-naltrexol alone (double doses control)) | cytotoxic effect of certain anti-cancer agents after priming (A549 and HCT116 cells; priming 48 h in an amount sufficient to raise OPRK1 expression by at least 10%, then cyclophosphamide, gemcitabine or oxaliplatin at approximately ¼ IC50 for 48 h) | effect on the level of expression of BAD (BAD; 10 μM)
Oc1ccc2c3c1OC1[C@H](O)CC[C@@]4(O)[C@@H](C2)N(CC2CC2)CC[C@]314 (stereo partly drawn) [6-β-naltrexol, 17-(Cyclopropylmethyl)-4,5-epoxymorphinan-3,6beta, 14-triol] | increases the level of expression | negligible effect | more than 10% | increase the level of expression | absence of any independent increase in cytotoxicity | increased | 
O=C1CC[C@@]2(O)[C@H]3Cc4ccc(O)c5c4[C@@]2(CCN3CC2CC2)[C@H]1O5 [naltrexone] | down-regulates the level of expression | negligible effect |  | increase the level of expression |  |  | negligible effect

Reference: patent publication US11885796B2, “Assay to identify anti-cancer agents” (LDN Pharma Limited, priority 2017, dated 2024)
